Laboratory results reported in patent publication US6525059B1, “Substituted pyrazoles as p38 kinase inhibitors” (G. D. Searle & Company, priority 1998, dated 2003).
pIC50: −log10 of the molar value. Several values for one entry are separate records, joined by “and”; a condition that tells them apart may be missing. Equal entries are not always repeated. Where two headings read alike, the source gives them in different places.

Assays:
[1] = biological target: T1, human GST-p38 kinase alpha (Homo sapiens, UniProt Q16539); test: p38 kinase in vitro assay, second format, phosphorylation of EGFRP with 33P-ATP; assay type: biochemical; conditions: read-out: p38α Kinase Assay IC50
T1 construct: The coding region of the human p38a cDNA was obtained by PCR-amplification from RNA isolated from the human monocyte cell line THP.1; made in house; host or cells: E. coli DH10B
How it was run: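 Activated human GST-p38α (pre-activated with GST-MKK6, 1 h, 30 °C) phosphorylates EGFR 21-mer peptide (200 μM) with 50 μM ATP plus γ-33P-ATP, pH 7.5, 60 min at room temperature. Unreacted ATP removed by AG 1×8 resin; supernatant scintillation-counted.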

[2] = system: human TNF; test: TNF inhibition: human whole blood assay; assay type: cell-based; conditions: Homo sapiens, LPS, read-out: TNF Inhibition-Human Whole Blood Assay
[3] = system: TNF-α; test: Rat assay: LPS-challenged rats, serum TNF-α by ELISA; assay type: in vivo; conditions: Rattus norvegicus, po; for inhibition in vivo at 5 mg/kg: Table 10, dose 5.0 mg/kg; for inhibition in vivo at 5 mg/kg / inhibition in vivo at 1 mg/kg / inhibition in vivo at 3 mg/kg: read-out: Rat LPS Assay % Inhibition; for inhibition in vivo at 1 mg/kg: Table 10, dose 1.0 mg/kg; for inhibition in vivo at 3 mg/kg: Table 8, dose 3.0 mg/kg

T1 sequence (Q16539 whole entry): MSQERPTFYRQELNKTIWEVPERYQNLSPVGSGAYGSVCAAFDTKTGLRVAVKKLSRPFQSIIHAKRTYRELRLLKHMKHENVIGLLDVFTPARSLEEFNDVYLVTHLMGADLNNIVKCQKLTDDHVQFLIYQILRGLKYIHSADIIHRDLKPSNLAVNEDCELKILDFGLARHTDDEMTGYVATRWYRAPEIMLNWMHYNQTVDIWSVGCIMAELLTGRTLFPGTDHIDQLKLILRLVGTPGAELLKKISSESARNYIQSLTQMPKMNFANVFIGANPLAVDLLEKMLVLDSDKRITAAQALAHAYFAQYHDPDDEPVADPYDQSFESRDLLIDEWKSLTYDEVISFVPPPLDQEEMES

| Compound | pIC50 ([1]; Table 10, 10% DMSO, @ 1.0 hour) | pIC50 ([2]; Table 10, human whole blood) | inhibition in vivo at 5 mg/kg [3] | inhibition in vivo at 20 mg/kg ([3]; Table 10, dose 20.0 mg/kg) | melting point | inhibition in vivo at 1 mg/kg [3] | pIC50 ([1]; Table 8, 10% DMSO) | pIC50 ([2]; Table 8, human whole blood) | inhibition in vivo at 3 mg/kg [3] | inhibition in vivo at 30 mg/kg ([3]; Table 8, dose 30.0 mg/kg) | inhibition in vivo at 20 mg/kg ([3]; Table 8, dose 20.0 mg/kg) |
| --- | --- | --- | --- | --- | --- | --- | --- | --- | --- | --- | --- |
| Nc1[nH]nc(-c2ccc(Cl)cc2)c1-c1ccncc1 [Example A-427, 5-amino-3-(4-chlorophenyl)-4-(pyridin-4-yl)pyrazole] | 6.72 | 4.62 | 56% | 77% | > 300 °C |  |  |  |  |  |  |
| Clc1ccc(-c2n[nH]c(SC3CCNCC3)c2-c2ccncc2)cc1 [Example A-459] | 7.57 | 6.59 | 54% | 80% | 211.1 to 211.2 °C | 0% |  |  |  |  |  |
| Clc1ccc(-c2n[nH]c(N3CCN(C4CC4)CC3)c2-c2ccncc2)cc1 [Example A-322, 1-[5-(4-chlorophenyl)-4-(4-pyridinyl)-1H-pyrazol-3-yl)-4-cyclopropylpiperazine] |  |  |  |  | 264 to 265 °C |  | 6.82 and 6.60 | 5.38 | 51.5% |  |  |
| CN1CCC(Oc2[nH]nc(-c3ccc(Cl)cc3)c2-c2ccncc2)CC1 [Example A-448, 3-(4-chlorophenyl)-5-[(1-methylpiperidin-4-yl)-oxy]-4-pyridin-4-yl-1H-pyrazole] | 7.08 | 6.92 | 73% | 97% | 255.9 to 256.8 °C |  |  |  |  |  |  |
| Cc1cc(C(=O)C(=C2SCS2)c2ccncc2)ccc1Cl [Example A-391, 1-(4-chloro-3-methylphenyl)-2-1,3-dithietan-2-ylidene-2-pyridin-4-yl-ethanone] | 5.32 | < 4.60 |  | 53% | 164 to 165 °C |  |  |  |  |  |  |
| CN1CCN(c2[nH]nc(-c3ccc(Br)cc3)c2-c2ccncc2)CC1 [Example A-439] | 6.82 | 5.25 | 58% | 93% | 270.2 to 270.7 °C |  |  |  |  |  |  |
| CN1CCN(c2[nH]nc(-c3cccc(Br)c3)c2-c2ccncc2)CC1 [Example A-409, 1-[5-(3-bromophenyl)-4-(4-pyridinyl)-1H-pyrazol-3-yl]-4-methylpiperazine] | 6.68 | 5.28 | 41% | 89% | 222.5 to 223.4 °C |  |  |  |  |  |  |
| Fc1ccc(-c2[nH]ncc2-c2ccnc(Nc3ccccc3F)n2)cc1 [Example A-325, N-(2-fluorophenyl)-4-[3-(4-fluorophenyl)-1H-pyrazol-4-yl]-2-pyrimidinamine] |  |  |  |  | 239 to 240 °C |  | > 7.00 | 7.24 | 25% | 11% |  |
| CSc1[nH]nc(-c2ccc(Cl)cc2)c1-c1ccncc1 [Example A-435] | 6.46 | < 4.60 | 0% | 14% | 250.2 °C | 10% |  |  |  |  |  |
| Cc1ccccc1-c1n[nH]c(N2CCN(C)CC2)c1-c1ccncc1 [Example A-408, 1-[5-(2-tolyl)-4-(4-pyridinyl)-1H-pyrazol-3-yl]-4-methylpiperazine] | 5.25 | 4.93 | 20% | 49% | 244 to 244.2 °C |  |  |  |  |  |  |
| CN1CCN(c2[nH]nc(-c3ccc(C(C)(C)C)cc3)c2-c2ccncc2)CC1 [Example A-414, 1-[5-(4-tert-butylphenyl)-4-(4-pyridinyl)-1H-pyrazol-3-yl]-4-methylpiperazine] | 5.02 | 4.95 | 3% | 14% | 243.6 to 244.3 °C |  |  |  |  |  |  |
| O=C(CSc1[nH]nc(-c2ccc(Cl)cc2)c1-c1ccncc1)N1CCOCC1 [Example A-476] | 6.00 | 6.01 |  | 35% | 215.4 to 215.5 °C |  |  |  |  |  |  |
| CN1CCN(c2n[nH]c(-c3cccc(Cl)c3)c2-c2ccncc2)CC1 [Example A-327, 1-[5-(3-chlorophenyl)-4-(4-pyridinyl)-1-H-pyrazol-3-yl]-4-methylpiperazine] |  |  |  |  | 229 to 231 °C |  | 6.82 | 6.74 |  |  | 83% |
| [O-][S+](c1[nH]nc(-c2ccc(Cl)cc2)c1-c1ccncc1)C1CCNCC1 (stereo not drawn) [Example A-482] | 5.79 | 6.16 |  | 15% | 189.1 to 190.8 °C |  |  |  |  |  |  |
| CC(C)(C)OC(=O)N1CCC(Oc2[nH]nc(-c3ccc(Cl)cc3)c2-c2ccncc2)CC1 [Example A-441] | 5.92 | < 4.60 | 14% | 62% | 230.1 to 231.8 °C |  |  |  |  |  |  |
| C#CCSc1[nH]nc(-c2ccc(Cl)cc2)c1-c1ccncc1 [Example A-478] | 6.74 | 6.31 |  |  | 212.7 to 213.2 °C |  |  |  |  |  |  |
| COc1[nH]nc(-c2ccc(Cl)cc2)c1-c1ccncc1 [Example A-446] | 6.05 | 5.47 |  |  | 265.3 °C |  |  |  |  |  |  |
| CN1CCN(c2n[nH]c(-c3ccc(I)cc3)c2-c2ccncc2)CC1 [Example A-417, 1-[5-(4-iodophenyl)-4-(4-pyridinyl)-1H-pyrazol-3-yl]-4-methylpiperazine] | 6.72 | 4.92 | 40% | 70% | 265.2 to 265.8 °C |  |  |  |  |  |  |
| Cc1cc(C(=O)C(=C2SCS2)c2ccncc2)ccc1Br [Example A-405] | 5.31 | < 4.60 |  |  | 167.1 to 167.5 °C |  |  |  |  |  |  |
| C=Cc1ccc(C(=O)C(=C2SCS2)c2ccncc2)cc1 [Example A-403] | 5.31 | < 4.60 |  |  | 176.6 to 176.7 °C |  |  |  |  |  |  |
| COc1ccc(CSc2[nH]nc(-c3ccc(F)cc3)c2-c2ccncc2)cc1 [Example A-452] | 5.54 | 6.62 |  |  | 214.7 to 215.8 °C |  |  |  |  |  |  |
| N#CCCCSc1[nH]nc(-c2ccc(Cl)cc2)c1-c1ccncc1 [Example A-475] | 6.55 | 5.29 |  |  | 216.7 to 216.9 °C |  |  |  |  |  |  |
| Cc1cc(-c2n[nH]c(N3CCN(C)CC3)c2-c2ccncc2)ccc1Cl [Example A-407, 1-[5-(3-methyl-4-chlorophenyl)-4-(4-pyridinyl)-1H-pyrazol-3-yl]-4-methylpiperazine] | 6.74 | 5.41 | 21% | 82% | 236.7 to 239.3 °C |  |  |  |  |  |  |
| COCCSc1[nH]nc(-c2ccc(Cl)cc2)c1-c1ccncc1 [Example A-469, 3-(4-chlorophenyl)-5-[(2-methoxyethyl)-thio]-4pyridin-4-yl-pyrazole] | 7.02 | 5.14 | 51% | 68% | 189.2 to 190.2 °C |  |  |  |  |  |  |
| Fc1ccc(-c2n[nH]c(SCC3OCCO3)c2-c2ccncc2)cc1 [Example A-451] | 7.11 | 4.82 |  |  | 202.1 to 205.4 °C |  |  |  |  |  |  |
| CN(C)CCCNC(=O)CSc1[nH]nc(-c2ccc(Cl)cc2)c1-c1ccncc1 [Example A-463] | 5.78 | < 4.60 |  |  | 168.8 to 169.5 °C |  |  |  |  |  |  |
